# Data from ChEMBL document CHEMBL1201862, “PubChem BioAssay data set” (2004).
#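 1) Cells in 96-well plates. 2) Compound, 48 h, 5 concentrations. 3) Linear interpolation between surrounding doses. 4) Unreached endpoint = highest concentration. Abbreviation: GI50, concentration required for 50% inhibition of growth.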 Calls of active or inactive are those of the source. Rule as the data show it: active = GI50 up to about 1.1 µM and inactive = higher.
# Columns and labels:
# Assay in all cases: NCI anticancer screen, dose series, 48 h
# [1] = system: CCRF-CEM
# [2] = system: SW-620
# [3] = system: HCT-15
# [4] = system: OVCAR-3
# [5] = system: IGROV-1
# [6] = system: EKVX
# [7] = system: NCI-H226
# [8] = system: UACC-62
# [9] = system: MCF7
# [10] = system: K562
# [11] = system: MDA-MB-435
# [12] = system: A549
# [13] = system: 786-0
# [14] = system: SK-MEL-28
# [15] = system: RXF 393
# [16] = system: PC-3
# [17] = system: MDA-MB-231
# [18] = system: SF-295
# [19] = system: TK-10
# [20] = system: NCI/ADR-RES
# [21] = system: MDA-N
# [22] = system: NCI-H460
# [23] = system: KM12
# [24] = system: OVCAR-5
# [25] = system: HOP-92
# [26] = system: MOLT-4
# [27] = system: BT-549
# [28] = system: T47D
# [29] = system: SK-OV-3
# [30] = system: Hs-578T
# [31] = system: SK-MEL-2
# [32] = system: SNB-19
# [33] = system: U-251
# [34] = system: OVCAR-8
# [35] = system: UO-31
# [36] = system: M14
# [37] = system: NCI-H23
# [38] = system: SR
# [39] = system: SF-268
# [40] = system: SF-539
# [41] = system: HCT-116
# [42] = system: SN12C
# [43] = system: HL-60
# [44] = system: Malme-3M
# [45] = system: HT-29
# [46] = system: HOP-62
# [47] = system: DU-145
# [48] = system: ACHN
# [49] = system: A498
# [50] = system: HCC 2998
# [51] = system: SK-MEL-5
# [52] = system: OVCAR-4
# [53] = system: RPMI-8226
# [54] = system: COLO 205
# [55] = system: LOX IMVI
# [56] = system: SNB-75
# [57] = system: UACC-257
# [58] = system: NCI-H522
# [59] = system: CAKI-1
smiles,measurement,setting,value
COC(=O)[C@@]1(C)CCC[C@]2(C(=O)O)C3Cc4occc4[C@H](C)[C@@H]3CCC21 (stereo partly specified),GI50,[1],22.3 µM (inactive)
same,GI50,[2],36 µM (inactive)
same,GI50,[3],> 10 µM
same,GI50,[4],> 100 µM (inactive)
same,GI50,[5],44.6 µM (inactive)
same,GI50,[6],39.1 µM (inactive)
same,GI50,[7],84.3 µM (inactive)
same,GI50,[8],62.5 µM (inactive)
same,GI50,[9],> 10 µM (inactive)
same,GI50,[10],29.2 µM (inactive)
same,GI50,[11],80.5 µM (inactive)
same,GI50,[12],38.5 µM (inactive)
same,GI50,[13],73.1 µM (inactive)
same,GI50,[14],> 100 µM (inactive)
same,GI50,[15],51.1 µM (inactive)
same,GI50,[16],23.7 µM (inactive)
same,GI50,[17],> 100 µM (inactive)
same,GI50,[18],33.6 µM (inactive)
same,GI50,[19],41 µM (inactive)
same,GI50,[20],25.6 µM (inactive)
same,GI50,[21],75.9 µM (inactive)
same,GI50,[22],33.8 µM (inactive)
same,GI50,[23],49.3 µM (inactive)
same,GI50,[24],> 100 µM (inactive)
same,GI50,[25],29.4 µM (inactive)
same,GI50,[26],29.2 µM (inactive)
same,GI50,[27],91.6 µM (inactive)
same,GI50,[28],40.6 µM (inactive)
same,GI50,[29],56.1 µM (inactive)
same,GI50,[30],29.4 µM (inactive)
same,GI50,[31],51.2 µM (inactive)
same,GI50,[32],71.1 µM (inactive)
same,GI50,[33],31.1 µM (inactive)
same,GI50,[34],68.1 µM (inactive)
same,GI50,[35],42.7 µM (inactive)
same,GI50,[36],76.4 µM (inactive)
same,GI50,[37],> 100 µM (inactive)
same,GI50,[38],59.7 µM (inactive)
same,GI50,[39],> 100 µM (inactive)
same,GI50,[40],42.9 µM (inactive)
same,GI50,[41],35.2 µM (inactive)
same,GI50,[42],28.9 µM (inactive)
same,GI50,[43],41.1 µM (inactive)
same,GI50,[44],34.5 µM (inactive)
same,GI50,[45],29 µM (inactive)
same,GI50,[46],34 µM (inactive)
same,GI50,[47],44.2 µM (inactive)
same,GI50,[48],44.2 µM (inactive)
same,GI50,[49],68.7 µM (inactive)
same,GI50,[50],30.2 µM (inactive)
same,GI50,[51],89.1 µM (inactive)
C/C1=C\CC[C@@]2(C)O[C@@H]2C[C@@H](C2(C)CO2)CC/C(C)=C/CC1 (stereo partly specified),GI50,[1],19.8 µM (inactive)
same,GI50,[2],32.8 µM (inactive)
same,GI50,[3],10.3 µM
same,GI50,[52],37.4 µM (inactive)
same,GI50,[53],31 µM (inactive)
same,GI50,[4],23.8 µM (inactive)
same,GI50,[5],32.9 µM (inactive)
same,GI50,[6],13.8 µM (inactive)
same,GI50,[7],15.2 µM (inactive)
same,GI50,[8],16 µM (inactive)
same,GI50,[9],21.7 µM (inactive)
same,GI50,[10],34.4 µM (inactive)
same,GI50,[11],20.6 µM (inactive)
same,GI50,[12],16.1 µM (inactive)
same,GI50,[13],16.8 µM (inactive)
same,GI50,[14],21.7 µM (inactive)
same,GI50,[16],22 µM (inactive)
same,GI50,[17],18.5 µM (inactive)
same,GI50,[18],22.1 µM (inactive)
same,GI50,[19],15.4 µM (inactive)
same,GI50,[20],20.4 µM (inactive)
same,GI50,[21],25.6 µM (inactive)
same,GI50,[54],15.6 µM (inactive)
same,GI50,[22],19.1 µM (inactive)
same,GI50,[23],17.5 µM (inactive)
same,GI50,[24],22.3 µM (inactive)
same,GI50,[25],33.7 µM (inactive)
same,GI50,[26],47.2 µM (inactive)
same,GI50,[27],21.2 µM (inactive)
same,GI50,[28],32.5 µM (inactive)
same,GI50,[29],49.3 µM (inactive)
same,GI50,[55],14.4 µM (inactive)
same,GI50,[30],19.5 µM (inactive)
same,GI50,[31],27.9 µM (inactive)
same,GI50,[32],19.4 µM (inactive)
same,GI50,[33],15.4 µM (inactive)
same,GI50,[56],26.2 µM (inactive)
same,GI50,[34],19.1 µM (inactive)
same,GI50,[35],25.2 µM (inactive)
same,GI50,[36],22.8 µM (inactive)
same,GI50,[37],19.4 µM (inactive)
same,GI50,[57],36.8 µM (inactive)
same,GI50,[38],33 µM (inactive)
same,GI50,[39],17.1 µM (inactive)
same,GI50,[40],21.7 µM (inactive)
same,GI50,[41],20.4 µM (inactive)
same,GI50,[42],17.7 µM (inactive)
same,GI50,[58],23.7 µM (inactive)
same,GI50,[43],27.1 µM (inactive)
same,GI50,[44],15.3 µM (inactive)
same,GI50,[45],34.4 µM (inactive)
same,GI50,[46],30.3 µM (inactive)
same,GI50,[47],24.8 µM (inactive)
same,GI50,[48],17.9 µM (inactive)
same,GI50,[49],> 100 µM (inactive)
same,GI50,[50],15 µM (inactive)
same,GI50,[51],21.7 µM (inactive)
same,GI50,[59],19.6 µM (inactive)
Cn1c2c(c3c(=O)[nH]ncc31)Cc1ccccc1-2,GI50,[1],9.1 µM (inactive)
same,GI50,[2],7.24 µM (inactive)
same,GI50,[3],11.1 µM
same,GI50,[52],21.3 µM (inactive)
same,GI50,[53],15.9 µM (inactive)
same,GI50,[4],12.7 µM (inactive)
same,GI50,[5],6.79 µM (inactive)
same,GI50,[6],22.7 µM (inactive)
same,GI50,[7],13.8 µM (inactive)
same,GI50,[9],11.5 µM (inactive)
same,GI50,[10],18.2 µM (inactive)
same,GI50,[11],14.3 µM (inactive)
same,GI50,[12],6.56 µM (inactive)
same,GI50,[13],6.37 µM (inactive)
same,GI50,[14],24.4 µM (inactive)
same,GI50,[15],15.5 µM (inactive)
same,GI50,[16],21.5 µM (inactive)
same,GI50,[17],14 µM (inactive)
same,GI50,[18],4.33 µM (inactive)
same,GI50,[19],5.81 µM (inactive)
same,GI50,[20],16 µM (inactive)
same,GI50,[21],12.9 µM (inactive)
same,GI50,[54],10.9 µM (inactive)
same,GI50,[22],3.04 µM (inactive)
same,GI50,[23],16.3 µM (inactive)
same,GI50,[24],31.1 µM (inactive)
same,GI50,[25],25.2 µM (inactive)
same,GI50,[26],3.45 µM (inactive)
same,GI50,[27],18.3 µM (inactive)
same,GI50,[28],25.6 µM (inactive)
same,GI50,[29],6.49 µM (inactive)
same,GI50,[55],6.65 µM (inactive)
same,GI50,[30],26.5 µM (inactive)
same,GI50,[31],21.3 µM (inactive)
same,GI50,[32],18.2 µM (inactive)
same,GI50,[33],13.5 µM (inactive)
same,GI50,[56],16.1 µM (inactive)
same,GI50,[34],11.7 µM (inactive)
same,GI50,[35],5.53 µM (inactive)
same,GI50,[36],15.6 µM (inactive)
same,GI50,[37],24.3 µM (inactive)
same,GI50,[57],10.8 µM (inactive)
same,GI50,[38],3.79 µM (inactive)
same,GI50,[39],12 µM (inactive)
same,GI50,[40],19.2 µM (inactive)
same,GI50,[41],3.64 µM (inactive)
same,GI50,[42],7.62 µM (inactive)
same,GI50,[58],17.8 µM (inactive)
same,GI50,[43],14.7 µM (inactive)
same,GI50,[44],16.3 µM (inactive)
same,GI50,[45],9.64 µM (inactive)
same,GI50,[46],22.5 µM (inactive)
same,GI50,[47],10.6 µM (inactive)
same,GI50,[48],5.07 µM (inactive)
same,GI50,[49],6.62 µM (inactive)
same,GI50,[51],12.2 µM (inactive)
same,GI50,[59],13.3 µM (inactive)
